SMILES strings stand for the structures.

One assay relates to TNBS-induced colitis. In words: Intestinal permeability, FITC-labeled-dextran method, TNBS-colitis model. The format is in vivo. The note with it: TNBS-colitis mice; 60 mg/kg i.p.; FITC-dextran gavage after 20 hours, serum four hours later; compared to vehicle control. The text has this: The effectiveness of compounds and methods of the present invention on intestinal barrier protection and treatment of inflammatory bowel disease (IBD) in TNBS (2,4,6-trinitrobenzene sulfonic acid)-induced colitis, an established animal model of inflammatory bowel disease, was examined. TNBS-induced colitis was induced in mice using a modification of techniques previously described. (See Morris et al (1989) Gastroenterology 96:795-803; Boirivant et al (1998) J Exp Med 188:1929-1939; Karhausen et al (2004) J Clin Invest 114:1098-1106.) Mice were shaved on the abdomen (causing total depletion of hair and microlesions) and were then sensitized to subsequent treatment by epicutaneous application of 1% TNBS (Sigma-Aldrich) in 100% ethanol on day minus 7. Seven days later, on day 0, animals were sedated with a 2.5% Tribromoethanol solution in phosphate-buffered saline (14 μl/g body weight), followed by intrarectal administration of a 2.5% TNBS solution in 50% ethanol (5 μl/g body weight). Administration of the 2.5% TNBS solution was carried out using an epidural catheter ([…] Plus Epidural Catheter, Arrow International), which was inserted approximately 6 cm ab ano followed by release of the TNBS solution. […] Four hours later, changes in intestinal permeability were determined by measurement of serum FITC-dextran levels.

In a further assay the test system is TNFα mRNA. Nature of the assay: TNFα expression in colonic mucosal scrapings by real-time PCR, TNBS-colitis model. The format is in vivo. To be noted: TNBS-colitis mice; 40 mg/kg i.p. on day minus 1, day 0, day 1; day three; compared to non-treated TNBS-colitis mice; p<0.01. The text has this:
The effectiveness of compounds and methods of the present invention on intestinal barrier protection and treatment of inflammatory bowel disease (IBD) in TNBS (2,4,6-trinitrobenzene sulfonic acid)-induced colitis, an established animal model of inflammatory bowel disease, was examined. TNBS-induced colitis was induced in mice using a modification of techniques previously described. (See Morris et al (1989) Gastroenterology 96:795-803; Boirivant et al (1998) J Exp Med 188:1929-1939; Karhausen et al (2004) J Clin Invest 114:1098-1106.)
Mice were shaved on the abdomen (causing total depletion of hair and microlesions) and were then sensitized to subsequent treatment by epicutaneous application of 1% TNBS (Sigma-Aldrich) in 100% ethanol on day minus 7. Seven days later, on day 0, animals were sedated with a 2.5% Tribromoethanol solution in phosphate-buffered saline (14 μl/g body weight), followed by intrarectal administration of a 2.5% TNBS solution in 50% ethanol (5 μl/g body weight). […]
Amplification cSycle parameters were as follows: 3 minutes at 95° C.; 40 cycles of 45 seconds at 95° C., 30 seconds at 58° C., 30 seconds at 72° C.; followed by repetitive melting cycles to establish amplification product specificity. Comparison of gene expression in a semi-quantitative manner was performed based on the mathematical model of Pfaffl. […]

Take `O=C(O)CNC(=O)c1ncc2cc(Sc3ccccc3)ccc2c1O` [Compound A, [(4-Hydroxy-7-phenylsulfanyl-isoquinoline-3-carbonyl)-amino]-acetic acid]: the “serum FITC-dextran levels (intestinal permeability)” value in the assay with TNBS-induced colitis is reported as “lower levels of serum FITC-dextran”. Also, the “TNFα mRNA levels in colonic mucosal scrapings” value with TNFα mRNA is given as “significant decrease”.

The values are drawn from patent US8962530B2, “Inflammatory bowel disease therapies” (Regents of the University of Colorado, priority 2007, dated 2015).
